Laboratory results as given in US11103509B2 (University of Kentucky Research Foundation, priority 2018, dated 2021).
Read-outs that look alike come from different tables or passages of the source.

What was measured:
human mPGES-1 = molecular target: T1, human mPGES-1 (Homo sapiens, UniProt O14684); assay: in vitro inhibitory activity against human mPGES-1 (PGE2 enzyme immunoassay); assay type: biochemical; settings: for inhibition at 10 µM: read-out: Inhibition (%) at 10 μM
T1 construct: made in house
T1 sequence (O14684 1-152): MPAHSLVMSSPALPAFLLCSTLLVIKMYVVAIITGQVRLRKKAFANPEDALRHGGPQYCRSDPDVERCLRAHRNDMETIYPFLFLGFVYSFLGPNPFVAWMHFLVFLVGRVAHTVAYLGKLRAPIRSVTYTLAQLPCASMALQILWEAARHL
Procedure: The above computational predictions were followed by in vitro activity assays for their actual inhibitory activity against human mPGES-1 using an ELISA assay previously-described.^16-17, 19 Specifically, a total of 18 FDA-approved drugs were assayed for their inhibitory activity against human mPGES-1.
The protocol for the protein preparation and in vitro activity assays were the same as described previously.^69-72 The enzyme activity assays were performed on ice in 1.5 ml microfuge tubes by using the expressed human mPGES-1. The reaction mixture contained: 0.2 M Na2HPO4/NaH2PO4, pH 7.2, 10 μL; 0.1 M GSH, 2.5 μL; diluted microsomal enzyme (80 μg/mL), 1 μL; PGH2 (0.31 mM in DMF), 5 μL; 1 μL inhibitor; and H2O in a final reaction volume of 100 μL. PGH2 was stored in dry ice and used to initiate the reaction. Compounds were incubated with the enzyme for 15 min at room temperature before the addition of cold PGH2 (1 μM final) to initiate the enzyme reaction. After 30 s, 10 μL of SnCl2 (40 mg/mL) in ethanol was added to stop the reaction. The non-enzymatic conversion of PGH2 to PGE2 was performed in the same buffer devoid of enzyme. The reaction mixture was placed on ice until PGE2 production was determined by the PGE2 enzyme immunoassay as described earlier. IC50 values of the inhibitors were calculated by using the GraphPad Prism 6.0.

pain in cancer patients [1] = assay: clinical data mining: pain complaints in afatinib Phase III clinical trial NCT00656136; assay type: in vivo, human
Procedure: To address this question, data from phase III clinical trial (NCT00656136) was also analyzed for drug afatinib, another EGFR and HER2 dual inhibitor approved by the FDA in 2013.

pain in cancer patients [2] = settings: cited from earlier work
[3] = 10 μM, single-concentration screening
[4] = NCT00656136, may include multiple types of pain from each patient
[5] = NCT00656136, with drug total 390

| SMILES | IC50 (human mPGES-1) | inhibition at 10 µM (human mPGES-1; [3]) | also measured |
| --- | --- | --- | --- |
| CC1(C)S[C@@H]2[C@H](NC(=O)COc3ccccc3)C(=O)N2[C@H]1C(=O)[O-].[K+] [Penicillin V Potassium] | – | – | Inhibition (%) at 10 μM (human mPGES-1; [3]): 36% |
| CO[C@@]1(NC(=O)C2SC(=C(C(N)=O)C(=O)[O-])S2)C(=O)N2C(C(=O)[O-])=C(CSc3nnnn3C)CS[C@@H]21.[Na+].[Na+] (some centres unmarked) [Cefotetan Disodium] | 13.5 ± 4 µM | – | Inhibition (%) at 10 μM (human mPGES-1; [3]): 44% |
| C[C@H]1[C@H](NC(=O)/C(=N\OC(C)(C)C(=O)O)c2csc(N)n2)C(=O)N1S(=O)(=O)O [Aztreonam] | 11.4 ± 1.1 µM | 53% | – |
| CC(C)(C)C(=O)OCOP(=O)(COCCn1cnc2c(N)ncnc21)OCOC(=O)C(C)(C)C [Adefovir Dipivoxil] | – | 19% | – |
| CCCCC[C@H](O)/C=C/[C@H]1[C@H](O)CC(=O)[C@@H]1CCCCCCC(=O)O [Alprostadil] | – | 11% | – |
| COc1cc(C)c(/C=C/C(C)=C/C=C/C(C)=C/C(=O)O)c(C)c1C [Acitretin] | 3.5 ± 1.6 µM | 83% | – |
| C[C@]12CC[C@@H]3c4ccc(OC(=O)N(CCCl)CCCl)cc4CC[C@H]3[C@@H]1CC[C@@H]2OP(=O)(O)O [Estramustine Phosphate] | – | – | inhibition at 10 µM (human mPGES-1): 36% |
| COc1cc2nc(N(C)CCCNC(=O)C3CCCO3)nc(N)c2cc1OC (centres unmarked) [Alfuzosin] | – | 22% | – |
| COCC1=C(C(=O)OC(C)OC(=O)OC(C)C)N2C(=O)[C@@H](NC(=O)/C(=N\OC)c3csc(N)n3)[C@H]2SC1 (some centres unmarked) [Cefpodoxime Proxetil] | 29.7 ± 6.3 µM | 47% | – |
| C=C1/C(=C\C=C2/CCC[C@]3(C)[C@@H]([C@H](C)/C=C/[C@@H](O)C4CC4)CC[C@@H]23)C[C@@H](O)C[C@@H]1O [Calcipotriene] | 3 ± 1.1 µM | 68% | – |
| CN(C)C/C=C/C(=O)Nc1cc2c(Nc3ccc(F)c(Cl)c3)ncnc2cc1O[C@H]1CCOC1 [afatinib] | – | – | analgesic effect (in words) (pain in cancer patients [1]; NCT00656136, compared to placebo): no analgesic effects at all; # of patients complaining pain/# of patients given afatinib, Counts: Total pain occurrence (pain in cancer patients [1]; [4]): 104/390; patients complaining pain, Percentage(%): Total pain occurrence (pain in cancer patients [1]; [4]): 26.67%; Back Pain, With drug pains (pain in cancer patients [2]; [5]): 29; Headache, With drug pains (pain in cancer patients [2]; [5]): 21; Pain In Extremity, With drug pains (pain in cancer patients [2]; [5]): 27; Pain-throat/pharynx/larynx, With drug pains (pain in cancer patients [2]; [5]): 27; # of patients complaining pain/# of patients given afatinib, Counts: Back Pain (pain in cancer patients [2]; NCT00656136): 29/390; # of patients complaining pain/# of patients given afatinib, Counts: Headache (pain in cancer patients [2]; NCT00656136): 21/390; # of patients complaining pain/# of patients given afatinib, Counts: Pain - chest/thorax (pain in cancer patients [2]; NCT00656136): 27/390; # of patients complaining pain/# of patients given afatinib, Counts: Pain in Extremity (pain in cancer patients [2]; NCT00656136): 27/390; patients complaining pain, Percentage(%): Back Pain (pain in cancer patients [2]; NCT00656136): 7.43%; patients complaining pain, Percentage(%): Headache (pain in cancer patients [2]; NCT00656136): 5.38%; patients complaining pain, Percentage(%): Pain - chest/thorax (pain in cancer patients [2]; NCT00656136): 6.92%; patients complaining pain, Percentage(%): Pain in Extremity (pain in cancer patients [2]; NCT00656136): 6.92% |

The next lines start with results.

| IC50 (human mPGES-1) | inhibition at 10 µM (human mPGES-1; [3]) | SMILES | also measured |
| --- | --- | --- | --- |
| – | 99% | CS(=O)(=O)CCNCc1ccc(-c2ccc3ncnc(Nc4ccc(OCc5cccc(F)c5)c(Cl)c4)c3c2)o1 [Lapatinib Ditosylate] | – |
| 9 ± 2.3 µM | 54% | CCOC(=O)[C@H](CCc1ccccc1)N[C@@H](C)C(=O)N1[C@H](C(=O)O)C[C@H]2CCCC[C@@H]21 [Trandolapril] | – |
| – | 44% | C[C@]12C=CC(=O)C=C1CC[C@@H]1[C@@H]2[C@@H](O)C[C@@]2(C)[C@H]1CC[C@]2(O)C(=O)CO [Prednisolone] | – |
| – | 4% | CCCCC[C@H](O)/C=C/[C@H]1[C@H](O)CC(=O)[C@@H]1C/C=C\CCCC(=O)O [Dinoprostone] | – |
| – | 36% | OCCN(CCO)c1nc(N2CCCCC2)c2nc(N(CCO)CCO)nc(N3CCCCC3)c2n1 [Dipyridamole] | – |
| 10.2 ± 2.5 µM | 52% | Cc1ccccc1C(=O)Nc1ccc(C(=O)N2CCCC(O)c3cc(Cl)ccc32)c(C)c1 (centres unmarked) [Tolvaptan] | – |
| 7.2 ± 2.4 µM | 57% | CO/N=C(\C(=O)N[C@@H]1C(=O)N2C(C(=O)O)=C(CSc3nc(=O)c(=O)[nH]n3C)CS[C@H]12)c1csc(N)n1 [Ceftriaxone] | – |
| – | 21% | COc1cc2nc(N3CCN(C(=O)C4COc5ccccc5O4)CC3)nc(N)c2cc1OC (centres unmarked) [Doxazosin] | – |
